Measurements: ChEMBL document CHEMBL3244082, “5-allyl-9-oxobenzomorphans. 3. Potent narcotic antagonists and analgesics-antagonists in the series of substituted 2',9beta-dihydroxy-6,7-benzomorphans” (1977)

Legend:
Type in all cases: functional
Mus musculus [1] = test: Analgesic activity in sc dosed mouse assessed as reduction in phenylquinone-induced writhing administered 15 mins prior to phenylquinone-challenge measured up to 10 mins
Mus musculus [2] = test: Analgesic activity in mouse assessed as reduction in phenylquinone-induced writhing at 2.5 mg/kg, sc administered 15 mins prior to phenylquinone-challenge measured up to 10 mins relative to control; parameters: scale not given: the % may be the effect or the level left; conditions: route subcutaneous
Mus musculus [3] = test: Analgesic activity in mouse assessed as reduction in phenylquinone-induced writhing at 1.25 mg/kg, sc administered 15 mins prior to phenylquinone-challenge measured up to 10 mins relative to control; parameters: scale not given: the % may be the effect or the level left; conditions: route subcutaneous
Mus musculus [4] = test: Narcotic antagonist activity in sc dosed mouse assessed as inhibition of oxymorphone-induced straub tail response administered 10 mins post oxymorphone-challenge
Mus musculus [5] = test: Analgesic activity in mouse assessed as reduction in phenylquinone-induced writhing at 40 mg/kg, sc administered 15 mins prior to phenylquinone-challenge measured up to 10 mins relative to control; parameters: scale not given: the % may be the effect or the level left; conditions: route subcutaneous
Mus musculus [6] = test: Analgesic activity in mouse assessed as reduction in phenylquinone-induced writhing at 20 mg/kg, sc administered 15 mins prior to phenylquinone-challenge measured up to 10 mins relative to control; parameters: scale not given: the % may be the effect or the level left; conditions: route subcutaneous
Rattus norvegicus [7] = test: Narcotic antagonist activity in sc dosed rat assessed as reversal of morphine-induced analgesia by tail-flick test
Rattus norvegicus [8] = test: Narcotic antagonist activity in sc dosed rat assessed as reversal of oxymorphone-induced loss of righting reflex
Rattus norvegicus [9] = test: Analgesic activity in sc dosed rat assessed as reduction in phenylquinone-induced writhing administered 15 mins prior to phenylquinone-challenge measured up to 10 mins
Mus musculus [10] = test: Analgesic activity in mouse assessed as reduction in phenylquinone-induced writhing at 10 mg/kg, sc administered 15 mins prior to phenylquinone-challenge measured up to 10 mins relative to control; parameters: scale not given: the % may be the effect or the level left; conditions: route subcutaneous
Mus musculus [11] = test: Narcotic antagonist activity in mouse assessed as inhibition of oxymorphone-induced straub tail response at 5 mg/kg, sc administered 10 mins post oxymorphone-challenge relative to control; conditions: route subcutaneous
Mus musculus [12] = test: Narcotic antagonist activity in mouse assessed as inhibition of oxymorphone-induced straub tail response at 2.5 mg/kg, sc administered 10 mins post oxymorphone-challenge relative to control; conditions: route subcutaneous
Mus musculus [13] = test: Analgesic activity in po dosed mouse by hot plate test
Mus musculus [14] = test: Analgesic activity in po dosed mouse assessed as increase in response time by hot plate test relative to control
[15] = Mus musculus, sc, read-out: ED50
[16] = Mus musculus, sc, 10 min, read-out: ED50

C=CC[C@]12CCN(C)[C@H](Cc3ccc(O)cc31)[C@H]2O
ED50 (Mus musculus [1]; [15]): 1.9 mg/kg | Activity (Mus musculus [2]): 78% | Activity (Mus musculus [3]): 1.25% | ED50 (Mus musculus [4]; [16]): > 40 mg/kg

C=CC[C@]12CCN(CC3CC3)[C@H](Cc3ccc(O)cc31)[C@H]2O
ED50 (Mus musculus [4]; [16]): 0.5 mg/kg

C=CC[C@]12CCN(CC3CCC3)[C@H](Cc3ccc(O)cc31)[C@H]2O
ED50 (Mus musculus [1]; [15]): 0.3 mg/kg | ED50 (Mus musculus [4]; [16]): 1.8 mg/kg

CCC[C@]12CCN(CC3CC3)[C@H](Cc3ccc(O)cc31)[C@H]2O
ED50 (Mus musculus [1]; [15]): 0.07 mg/kg | ED50 (Mus musculus [4]; [16]): 0.62 mg/kg

CCC[C@]12CCN(CC3CCC3)[C@H](Cc3ccc(O)cc31)[C@H]2O
ED50 (Mus musculus [1]; [15]): 0.24 mg/kg | ED50 (Mus musculus [4]; [16]): 2.5 mg/kg

CCC[C@]12CCN(CC)[C@H](Cc3ccc(O)cc31)[C@@]2(C)O
ED50 (Mus musculus [1]; [15]): 2.1 mg/kg | ED50 (Mus musculus [4]; [16]): > 40 mg/kg

C=CC[C@]12CCN(CC)[C@H](Cc3ccc(O)cc31)[C@@]2(C)O.O=C(O)C(=O)O
ED50 (Mus musculus [1]; [15]): 2 mg/kg | ED50 (Mus musculus [4]; [16]): > 40 mg/kg

C=CC[C@]12CCN(CC3CC3)[C@H](Cc3ccc(O)cc31)[C@@]2(C)O
ED50 (Mus musculus [1]; [15]): 45 mg/kg

C=CC[C@]12CCN(Cc3ccco3)[C@H](Cc3ccc(O)cc31)[C@@]2(C)O.O=C(O)C(=O)O
ED50 (Mus musculus [1]; [15]): 36 mg/kg | Activity (Mus musculus [5]): 66% | Activity (Mus musculus [6]): 0% | ED50 (Mus musculus [4]; [16]): 1.3 mg/kg

CCC[C@]12CCN(CC3CC3)[C@H](Cc3ccc(O)cc31)[C@@]2(C)O
ED50 (Rattus norvegicus [7]): 0.008 mg/kg | ED50 (Rattus norvegicus [8]): 0.013 mg/kg | ED50 (Rattus norvegicus [9]): 30 mg/kg | ED50 (Mus musculus [1]; [15]): 44 mg/kg | ED50 (Mus musculus [4]; [16]): 0.074 mg/kg

CCC[C@]12CCN(CC3CCC3)[C@H](Cc3ccc(O)cc31)[C@@]2(C)O.Cl
ED50 (Rattus norvegicus [7]): 0.084 mg/kg | ED50 (Mus musculus [1]; [15]): 0.18 mg/kg | ED50 (Mus musculus [4]; [16]): 1.17 mg/kg

CC1C[C@]23CCN(C)[C@H](Cc4ccc(O)cc42)[C@H]3O1 (some centres not stated)
ED50 (Mus musculus [1]; [15]): 19 mg/kg | Activity (Mus musculus [6]): 63% | Activity (Mus musculus [10]): 0% | ED50 (Mus musculus [4]; [16]): > 40 mg/kg

CC1C[C@]23CCN(C)[C@H](Cc4ccc(O)cc42)[C@@]3(C)O1 (some centres not stated)
ED50 (Mus musculus [1]; [15]): 18 mg/kg | Activity (Mus musculus [6]): 65% | Activity (Mus musculus [10]): 5% | ED50 (Mus musculus [4]; [16]): > 40 mg/kg

CC1C[C@]23CCN(C4CC4)[C@H](Cc4ccc(O)cc42)[C@H]3O1 (some centres not stated)
ED50 (Mus musculus [1]; [15]): 30 mg/kg | Activity (Mus musculus [5]): 67% | Activity (Mus musculus [6]): 23% | ED50 (Mus musculus [4]; [16]): 8 mg/kg

CC1C[C@]23CCN(C4CC4)[C@H](Cc4ccc(O)cc42)[C@@]3(C)O1 (some centres not stated)
ED50 (Mus musculus [1]; [15]): > 40 mg/kg | ED50 (Mus musculus [4]; [16]): 0.63 mg/kg

CC1C[C@]23CCN(C4CCC4)[C@H](Cc4ccc(O)cc42)[C@@]3(C)O1 (some centres not stated)
ED50 (Mus musculus [1]; [15]): 40 mg/kg | Activity (Mus musculus [5]): 50% | Activity (Mus musculus [6]): 33% | ED50 (Mus musculus [4]; [16]): 3 mg/kg | ED50 (Mus musculus [11]): 100 mg/kg | ED50 (Mus musculus [12]): 33 mg/kg

CC1C[C@]23CCN(C)[C@H](Cc4ccccc42)[C@H]3O1 (some centres not stated)
ED50 (Mus musculus [13]): 30 mg/kg | %max (Mus musculus [14]): 16% | ED50 (Mus musculus [4]; [16]): > 40 mg/kg

CC1C[C@]23CCN(C)[C@H](Cc4ccccc42)[C@@]3(C)O1.Cl (some centres not stated)
ED50 (Mus musculus [13]): 16 mg/kg | %max (Mus musculus [14]): 16% | ED50 (Mus musculus [4]; [16]): > 40 mg/kg

Br.CN1CC[C@]23CC(CBr)O[C@]2(C)[C@H]1Cc1ccccc13 (some centres not stated)
ED50 (Mus musculus [13]): 64 mg/kg | %max (Mus musculus [14]): 32% | ED50 (Mus musculus [4]; [16]): > 40 mg/kg

CN(C)CC1C[C@]23CCN(C)[C@H](Cc4ccccc42)[C@@]3(C)O1.Cl (some centres not stated)
ED50 (Mus musculus [13]): > 40 mg/kg | ED50 (Mus musculus [4]; [16]): > 40 mg/kg

C=CC[C@]12CCN(CC3CC3)[C@H](Cc3ccc(O)cc31)[C@@]2(C)O.O=C(O)C(O)C(O)C(=O)O (stereo in doubt; (+)-23a)
ED50 (Mus musculus [1]): >40 mg/kg | ED50 (Mus musculus [4]): >40 mg/kg

C=CC[C@]12CCN(CC3CCC3)[C@H](Cc3ccc(O)cc31)[C@@]2(C)O.O=C(O)C(O)C(O)C(=O)O (stereo in doubt; (+)-23b)
ED50 (Mus musculus [1]): >40 mg/kg | ED50 (Mus musculus [4]): >40 mg/kg

C=CC[C@]12CCN(CC3CC3)[C@H](Cc3ccc(O)cc31)[C@@]2(C)O.O=C(O)C(O)C(O)C(=O)O (stereo in doubt; (-)-23a)
ED50 (Rattus norvegicus [7]): 0.006 mg/kg | ED50 (Rattus norvegicus [9]): 8 mg/kg | ED50 (Mus musculus [1]; [15]): 44 mg/kg | ED50 (Mus musculus [4]): 0.08 mg/kg

C=CC[C@]12CCN(CC3CCC3)[C@H](Cc3ccc(O)cc31)[C@@]2(C)O.O=C(O)C(O)C(O)C(=O)O (stereo in doubt; (-)-23b)
ED50 (Rattus norvegicus [7]): 0.08 mg/kg | ED50 (Rattus norvegicus [8]): 0.05 mg/kg | ED50 (Rattus norvegicus [9]): 0.01 mg/kg | ED50 (Mus musculus [1]): 0.06 mg/kg | ED50 (Mus musculus [4]): 0.43 mg/kg

Oc1ccc2c(c1)[C@@]13CCCC[C@@]1(O)[C@@H](C2)N(CC1CCC1)CC3 [BUTORPHANOL]
ED50 (Rattus norvegicus [7]): 0.43 mg/kg | ED50 (Rattus norvegicus [8]): 0.27 mg/kg | ED50 (Rattus norvegicus [9]): 0.04 mg/kg | ED50 (Mus musculus [1]; [15]): 0.05 mg/kg | ED50 (Mus musculus [4]; [16]): 0.98 mg/kg

Oc1ccc2c(c1)[C@@]13CCCC[C@@]1(O)[C@@H](C2)N(CC1CC1)CC3 [OXILORPHAN]
ED50 (Rattus norvegicus [7]): 0.012 mg/kg | ED50 (Rattus norvegicus [8]): 0.03 mg/kg | ED50 (Rattus norvegicus [9]): 8 mg/kg | ED50 (Mus musculus [1]; [15]): 13 mg/kg | ED50 (Mus musculus [4]; [16]): 0.19 mg/kg
